Data reported in patent US20130302442A1, “METHODS OF USING (4S,4AS,5AR,12AS)-4-DIMETHYLAMINO-3,10,12,12A-TETRAHYDROXY-7-[(METHOXY(METHYL)AMINO)-METHYL]-1,11-DIOXO-1,4,4A,5,5A,6,11,12A-OCTAHYDRO-NAPHTHACENE-2-CARBOXYLIC ACID AMIDE” (priority 2012, published 2013).
Values after ≈ are worked out from the molar mass of the structure shown. Where two headings read alike, the source gives them in different places.

Key:
Type in all cases: cell-based
[1] = system: P. granulosum; test: In vitro MIC testing, antibacterial spectrum of activity; details: P. granulosum [clinical isolates] (3 isolates)
[2] = system: Streptococcus spp. [Group C]; test: as above; details: Streptococcus spp. [Group C] (30 isolates)
[3] = system: Propionibacterium acnes; test: In vitro MIC testing against anaerobic bacteria; details: Cutibacterium acnes, read-out: MIC
[4] = system: Clostridium difficile; test: In vitro MIC testing against anaerobic bacteria
[5] = system: Bifidobacterium infantis; test: In vitro MIC testing against anaerobic bacteria; details: ATCC15702; Bifidobacterium infantis 3966, ATCC 15702
[6] = system: S. pyogenes; test: In vitro MIC testing, antibacterial spectrum of activity
[7] = system: Bifidobacterium bifidum; test: In vitro MIC testing against anaerobic bacteria; details: ATCC15696; Bifidobacterium bifidum 3965, ATCC 15696
[8] = system: Bacteroides thetaiotaomicron; test: In vitro MIC testing against anaerobic bacteria
[9] = system: Lactobacillus casei; test: In vitro MIC testing against anaerobic bacteria; details: Lacticaseibacillus casei, ATCC393; Lactobacillus casei 1722, ATCC 393
[10] = system: Fusobacterium nucleatum; test: In vitro MIC testing against anaerobic bacteria; details: ATCC25586; Fusobacterium nucleatum 3962, ATCC 25586; read-out: MIC
[11] = system: Bacteroides ovatus; test: In vitro MIC testing against anaerobic bacteria
[12] = system: P. avidum; test: In vitro MIC testing, antibacterial spectrum of activity; details: P. avidum [clinical isolates] (4 isolates)
[13] = system: E. faecalis; test: as above
[14] = system: S. haemolyticus; test: as above; details: S. haemolyticus (33 isolates)
[15] = system: S. agalactiae; test: as above
[16] = system: P. mirabilis; test: as above; details: Proteus mirabilis; P. mirabilis (30 isolates)
[17] = system: Clostridium perfringens; test: microbe, parasite or virus in culture
[18] = system: K. pneumoniae; test: In vitro MIC testing, antibacterial spectrum of activity
[19] = system: Fusobacterium necrophorum; test: In vitro MIC testing against anaerobic bacteria; details: ATCC25286; Fusobacterium necrophorum 3963, ATCC 25286; read-out: MIC
[20] = system: E. faecium; test: In vitro MIC testing, antibacterial spectrum of activity; details: for MIC / MIC50 / MIC90: Enterococcus faecium; for MIC50: read-out: MIC50; for MIC90: read-out: MIC90
[21] = system: P. aeruginosa; test: as above; details: Pseudomonas aeruginosa; P. aeruginosa (11 isolates)
[22] = system: Lactobacillus acidophilus; test: In vitro MIC testing against anaerobic bacteria; details: Lactobacillus acidophilus 0681
[23] = system: Porphyromonas asaccharolytica; test: In vitro MIC testing against anaerobic bacteria
[24] = system: Peptostreptococcus anaerobius; test: In vitro MIC testing against anaerobic bacteria
[25] = system: Peptostreptococcus micros; test: In vitro MIC testing against anaerobic bacteria; details: Parvimonas micra, read-out: MIC
[26] = system: Bifidobacterium longum; test: In vitro MIC testing against anaerobic bacteria; details: ATCC15707; Bifidobacterium longum 3968, ATCC 15707
[27] = system: Bifidobacterium brevi; test: In vitro MIC testing against anaerobic bacteria; details: ATCC15698; Bifidobacterium brevi 3967, ATCC 15698
[28] = system: Eikenella corrodens; test: In vitro MIC testing against anaerobic bacteria; details: ATCC43278; Eikenella corrodens 1206, ATCC 43278; read-out: MIC
[29] = system: Bacteroides fragilis; test: In vitro MIC testing against anaerobic bacteria
[30] = system: Veillonella parvula; test: In vitro MIC testing against anaerobic bacteria; details: ATCC17745; Veillonella parvula 1272, ATCC 17745
[31] = system: Streptococcus intermedius; test: In vitro MIC testing against anaerobic bacteria; details: ATCC27335; Streptococcus intermedius 1203, ATCC 27335
[32] = system: E. coli; test: In vitro MIC testing, antibacterial spectrum of activity; details: E. coli [tetS] (7 isolates)
[33] = Klebsiella pneumoniae, K. pneumoniae (31 isolates)

C[C@H]1c2cccc(O)c2C(=O)C2=C(O)[C@]3(O)C(=O)C(C(N)=O)=C(O)[C@@H](N(C)C)[C@@H]3[C@@H](O)[C@@H]21 [Doxycycline, doxycycline]
MIC Range [1]: 0.5 to 1 µg/mL | MIC Range [2]: 0.06 to 16 µg/mL | MIC50 ([2]; read-out: MIC50): 0.12 µg/mL (≈ 0.27 µM) | MIC90 ([2]; read-out: MIC90): 8 µg/mL (≈ 18 µM) | MIC ([3]; ATCC11829, Propionibacterium acnes 1286, ATCC 11829): 0.5 µg/mL (≈ 1.13 µM) | MIC ([3]; Propionibacterium acnes 1713): 0.12 µg/mL (≈ 0.27 µM) | MIC ([4]; Clostridioides difficile): 0.06 µg/mL (≈ 0.135 µM) | MIC ([4]; Clostridium difficile 3584): 0.06 µg/mL (≈ 0.135 µM) | MIC [5]: 0.5 µg/mL (≈ 1.13 µM) | MIC Range ([6]; S. pyogenes (32 isolates)): 0.06 to 8 µg/mL | MIC Range ([6]; S. pyogenes [tetR] (5 isolates)): 4 to 8 µg/mL | MIC Range ([6]; S. pyogenes [tetS] (5 isolates)): ≦0.06-0.125 μg/mL | MIC ([6]; Streptococcus pyogenes, S. pyogenes strain PBS # 330, tetO): 8 µg/mL (≈ 18 µM) | MIC ([6]; Streptococcus pyogenes, S. pyogenes strain PBS # 792, tetM): 4 µg/mL (≈ 9 µM) | MIC50 ([6]; Streptococcus pyogenes, S. pyogenes (32 isolates), read-out: MIC50): 0.12 µg/mL (≈ 0.27 µM) | MIC90 ([6]; Streptococcus pyogenes, S. pyogenes (32 isolates), read-out: MIC90): 4 µg/mL (≈ 9 µM) | MIC [7]: 0.5 µg/mL (≈ 1.13 µM) | MIC ([8]; Bacteroides thetaiotaomicron 3399): 0.25 µg/mL (≈ 0.563 µM) | MIC ([8]; Bacteroides thetaiotaomicron 3496): 16 µg/mL (≈ 36 µM) | MIC [9]: 2 µg/mL (≈ 4.5 µM) | MIC [10]: 0.5 µg/mL (≈ 1.13 µM) | MIC ([11]; Bacteroides ovatus 3503, read-out: MIC): 8 µg/mL (≈ 18 µM) | MIC ([11]; Bacteroides ovatus 3508, read-out: MIC): 0.12 µg/mL (≈ 0.27 µM) | MIC Range [12]: 0.5 to 4 µg/mL | MIC Range ([13]; E. faecalis [VSE] (31 isolates)): 0.12 to 16 µg/mL | MIC Range ([13]; E. faecalis [tetR] (6 isolates)): 2 to 16 µg/mL | MIC Range ([13]; E. faecalis [tetS] (4 isolates)): ≦0.06-0.125 μg/mL | MIC ([13]; Enterococcus faecalis, E. faecalis strain PBS # 274, tetL): 16 µg/mL (≈ 36 µM) | MIC ([13]; Enterococcus faecalis, E. faecalis strain PBS # 276, tetM): 8 µg/mL (≈ 18 µM) | MIC ([13]; Enterococcus faecalis, E. faecalis strain PBS # 949, tetS): 2 µg/mL (≈ 4.5 µM) | MIC50 ([13]; Enterococcus faecalis, E. faecalis [VSE] (31 isolates), read-out: MIC50): 8 µg/mL (≈ 18 µM) | MIC90 ([13]; Enterococcus faecalis, E. faecalis [VSE] (31 isolates), read-out: MIC90): 8 µg/mL (≈ 18 µM) | MIC Range [14]: 0.06 to 16 µg/mL | MIC50 ([14]; Staphylococcus haemolyticus, read-out: MIC50): 0.5 µg/mL (≈ 1.13 µM) | MIC90 ([14]; Staphylococcus haemolyticus, read-out: MIC90): 16 µg/mL (≈ 36 µM) | MIC Range ([15]; S. agalactiae (31 isolates)): 0.06 to 16 µg/mL | MIC Range ([15]; S. agalactiae [tetR] (7 isolates)): 8 to 16 µg/mL | MIC Range ([15]; S. agalactiae [tetS] (3 isolates)): 0.25-0.25 μg/mL | MIC ([15]; Streptococcus agalactiae, S. agalactiae strain PBS # 316, tetO): 8 µg/mL (≈ 18 µM) | MIC ([15]; Streptococcus agalactiae, S. agalactiae strain PBS # 897, tetM): 8 µg/mL (≈ 18 µM) | MIC50 ([15]; Streptococcus agalactiae, S. agalactiae (31 isolates), read-out: MIC50): 8 µg/mL (≈ 18 µM) | MIC90 ([15]; Streptococcus agalactiae, S. agalactiae (31 isolates), read-out: MIC90): 16 µg/mL (≈ 36 µM) | MIC50 [16]: > 32 µg/mL | MIC90 [16]: > 32 µg/mL | MIC [17]: 16 µg/mL (≈ 36 µM) | MIC Range ([18]; K. pneumoniae [tetS] (7 isolates)): 0.5 to 8 µg/mL | MIC50 [18, 33]: 8 µg/mL (≈ 18 µM) | MIC90 [18, 33]: > 32 µg/mL | MIC [19]: 0.5 µg/mL (≈ 1.13 µM) | MIC Range ([20]; E. faecium [VRE] (30 isolates)): 0.06 to 16 µg/mL | MIC Range ([20]; E. faecium [VSE] (32 isolates)): 0.06 to 32 µg/mL | MIC Range ([20]; E. faecium [tetR] (6 isolates)): 4 to 16 µg/mL | MIC ([20]; E. faecium strain PBS # 965, tetM): 4 µg/mL (≈ 9 µM) | MIC ([20]; E. faecium strain PBS # 1323, tetK): 4 µg/mL (≈ 9 µM) | MIC ([20]; E. faecium strain PBS # 1324, tetO): 4 µg/mL (≈ 9 µM) | MIC50 ([20]; E. faecium [VRE] (30 isolates)): 1 µg/mL (≈ 2.25 µM) | MIC90 ([20]; E. faecium [VRE] (30 isolates)): 8 µg/mL (≈ 18 µM) | MIC50 ([20]; E. faecium [VSE] (32 isolates)): 0.5 µg/mL (≈ 1.13 µM) | MIC90 ([20]; E. faecium [VSE] (32 isolates)): 16 µg/mL (≈ 36 µM) | MIC50 [21]: > 32 µg/mL | MIC90 [21]: > 32 µg/mL | MIC [22]: 2 µg/mL (≈ 4.5 µM) | MIC ([23]; Porphyromonas asaccharolytica 3552, read-out: MIC): 4 µg/mL (≈ 9 µM) | MIC ([23]; Porphyromonas asaccharolytica 3557, read-out: MIC): 2 µg/mL (≈ 4.5 µM) | MIC ([24]; Peptostreptococcus anaerobius 3526): 2 µg/mL (≈ 4.5 µM) | MIC ([24]; Peptostreptococcus anaerobius 3531): 4 µg/mL (≈ 9 µM) | MIC ([25]; Peptostreptococcus micros 3432): 0.12 µg/mL (≈ 0.27 µM) | MIC ([25]; Peptostreptococcus micros 3545): 0.5 µg/mL (≈ 1.13 µM) | MIC [26]: 1 µg/mL (≈ 2.25 µM) | MIC [27]: 0.5 µg/mL (≈ 1.13 µM) | MIC [28]: 0.12 µg/mL (≈ 0.27 µM) | MIC ([29]; Bacteroides fragilis 3374, read-out: MIC): 0.12 µg/mL (≈ 0.27 µM) | MIC ([29]; Bacteroides fragilis 3479): 16 µg/mL (≈ 36 µM) | MIC [30]: 1 µg/mL (≈ 2.25 µM) | MIC [31]: 0.5 µg/mL (≈ 1.13 µM) | MIC Range [32]: 0.5 to 4 µg/mL
